Results reported in ChEMBL document CHEMBL5131462, “5'-Phosphonate modified oligoadenylates as potent activators of human RNase L” (Bioorg Med Chem, 2022).

What was measured:
Homo sapiens [1] = species: Homo sapiens; assay: Activation of human RNase L using [CY5]-r(C11-UUC7)- [BHQ2] as substrate assessed as cleavage of fluorescent substrate by measuring increase in fluorescence at 100 nM incubated for 30 mins by FRET assay relative to control; conditions: filed as activator
[2] = Activation of human RNase L using [CY5]-r(C11-UUC7)- [BHQ2] as substrate assessed as cleavage of fluorescent substrate by measuring increase in fluorescence incubated for 30 mins by FRET assay
Homo sapiens [3] = species: Homo sapiens; assay: Activation of human RNase L assessed as reduction in Vmax using varying concentrations of [CY5]-r(C11-UUC7)- [BHQ2] as substrate incubated for 30 mins by FRET assay relative to control; parameters: scale not given: the % may be the effect or the level left; conditions: filed as activator

Activity (Homo sapiens [1]) [%] | EC50 [2] [nM] | Activity (Homo sapiens [3]) [%] | Structure (SMILES)
> 75 | 46.1 | 33 | Nc1ncnc2c1ncn2[C@@H]1O[C@H](COP(=O)(O)O[C@@H]2[C@H](O)[C@@H](COP(=O)(O)O[C@@H]3[C@H](O)[C@@H](COCP(=O)(O)O)O[C@H]3n3cnc4c(N)ncnc43)O[C@H]2n2cnc3c(N)ncnc32)[C@@H](O)[C@H]1O
> 75 | 33.8 | 33 | Nc1ncnc2c1ncn2[C@@H]1O[C@H](COP(=O)(O)O[C@@H]2[C@H](O)[C@@H](COP(=O)(O)O[C@@H]3[C@H](O)[C@@H](CSCP(=O)(O)O)O[C@H]3n3cnc4c(N)ncnc43)O[C@H]2n2cnc3c(N)ncnc32)[C@@H](O)[C@H]1O
> 75 | 55.2 | 33 | Nc1ncnc2c1ncn2[C@@H]1O[C@H](COP(=O)(O)O[C@@H]2[C@H](O)[C@@H](COP(=O)(O)O[C@@H]3[C@H](O)[C@@H](COCC(O)P(=O)(O)O)O[C@H]3n3cnc4c(N)ncnc43)O[C@H]2n2cnc3c(N)ncnc32)[C@@H](O)[C@H]1O (stereo partly specified)
 | 15.3 |  | Nc1ncnc2c1ncn2[C@@H]1O[C@H](COP(=O)(O)O[C@@H]2[C@H](O)[C@@H](COP(=O)(O)O[C@@H]3[C@H](O)[C@@H](COP(=O)(O)O)O[C@H]3n3cnc4c(N)ncnc43)O[C@H]2n2cnc3c(N)ncnc32)[C@@H](O)[C@H]1O

Further lines, the compound ahead of its results:

Structure (SMILES) | Activity (Homo sapiens [1]) [%] | EC50 [2] [nM] | Activity (Homo sapiens [3]) [%]
C[C@]1(OCP(=O)(O)O)O[C@@H](n2cnc3c(N)ncnc32)[C@H](OP(=O)(O)OC[C@H]2O[C@@H](n3cnc4c(N)ncnc43)[C@H](OP(=O)(O)OC[C@H]3O[C@@H](n4cnc5c(N)ncnc54)[C@H](O)[C@@H]3O)[C@@H]2O)[C@@H]1O | > 75 | 35.7 | 
Nc1ncnc2c1ncn2[C@@H]1O[C@H](COP(=O)(O)O[C@@H]2[C@H](O)[C@@H](COP(=O)(O)O[C@@H]3[C@H](O)[C@@H](CNC(=O)P(=O)(O)O)O[C@H]3n3cnc4c(N)ncnc43)O[C@H]2n2cnc3c(N)ncnc32)[C@@H](O)[C@H]1O | > 75 | 20.9 | 
Nc1ncnc2c1ncn2[C@@H]1O[C@H](COP(=O)(O)O[C@@H]2[C@H](O)[C@@H](COP(=O)(O)O[C@@H]3[C@H](O)[C@@H](OCP(=O)(O)O)O[C@H]3n3cnc4c(N)ncnc43)O[C@H]2n2cnc3c(N)ncnc32)[C@@H](O)[C@H]1O | > 75 | 18.9 | 
